Where a SMILES comes first, the peptide text is derived from it. The star is where a group is joined. Tos = Cc1ccc(S(=O)(=O)*)cc1; CH2Cl = ClC*
Tests used:
PAR1 = conditions: use limited; ref [34] Gao et al., 2015; cited from earlier work
Source text: Numerous findings support the involvement of the thrombin-PAR1 pathway in glioma pathology ([8], [13], [18]). We have previously found a positive correlation between edema size and PAR1 expression in an animal model of GBM ([19]). […] In addition to the direct thrombin-PAR1 effects on glioma cells, PARs play a crucial role in the control of angiogenesis and vascular permeability by regulating the release of endostatin and vascular endothelial growth fac ...

U87 glioma cells = experiment: U87 glioma cell proliferation (XTT); assay type: cell-based, human; conditions: 72 h
Procedure: CNS-1, C6, and U87 rat and human glioma cells were grown in Dulbecco's modified Eagle's medium (DMEM; Bet Haemek, Biological Industries, Israel) supplemented with 10% fetal bovine serum (Bet Haemek, Biological Industries, Israel) and 1% penicillin and streptomycin in a 5% CO2-humidified atmosphere.
Cell proliferation was evaluated using a 2.3-Bis-(2-methoxy-4-nitro-5-sulfophenyl)-2H-tetrazolium-5-carboxyanilide salt (XTT)-based cell proliferation assay kit (Bet Haemek, Biological Industries, Israel). U87 cells were seeded in 96-well plates (5 × 10^3 cells/well) and incubated for 24 h. The medium was then removed, the tested molecules (10^−13-10^−4 M final concentration) were added in FCS-free medium and introduced to the cells for 72 h. After choosing SIXAC as the leading molecule, it was tested in a similar way in CNS-1 cells (SIXAC 1 μM final concentration). XTT solution (50 μl) was added to each well and incubated for 3 h at 37°C. The optical density (OD) of each well was recorded at 450 and 630 nm in a microplate reader (Infinite M200, Tecan, Durham, NC, USA). Cell viability was expressed as the percentage (ODtest–ODblank)/(ODcontrol–ODblank), where ODtest is the optical density of cells exposed to SIXAC treatment, ODcontrol is the optical density of the control sample, and ODblank is the optical density of wells without glioma cells.

[1] = tested on: thrombin mediated PAR1 activation (pERK/ERK) in CNS-1 cells; experiment: ERK activation (pERK/ERK, Western blot) in CNS-1 cells; assay type: cell-based, rat; conditions: thrombin 1 U/ml, 10 min, FCS-free; n = 3; control 1 ± 0.07; p < 0.03 vs. control
Procedure: Cells were seeded (1 × 10^6 cells/75 cm^2 flask) and incubated for 24 h. Then the medium was replaced by FCS-free medium for another 24 h. The cells were treated for 10 min with thrombin (1 U/ml), SIXAC (100 nM), a combination of thrombin and SIXAC or a FCS-free medium which was used as a control (n = 3 for each treatment). The cells were washed and lysed in RIPA buffer (containing in mM: 50 TRIS HCl pH 8, 150 NaCl, 1% NP-40, 0.5% sodium deoxycholate, and 0.1% SDS), a protease inhibitor cocktail (Merck Millipore 539134, 1:100), 0.1 mM sodium orthovanadate and 2 mM PMSF. The cells were scraped, collected and centrifuged (16,000g × 20 min) at 4°C. The supernatants were collected, and protein concentration was determined by means of a bicinchoninic acid (BCA) assay. Each sample (20 μg) was separated by SDS-polyacrylamide gel electrophoresis. The proteins were transferred onto nitrocellulose membranes. Membranes were incubated with mouse anti-phosphorylated Extracellular signal-Regulated Kinase (pERK) antibody (1:10,000, M8159, Sigma), for 1.5 h at room temperature (RT) and washed with Tris-buffered saline and 0.1% Tween 20 (TBST). Membranes were then incubated at RT with horseradish peroxidase-conjugated goat anti-mouse antibody (1:10,000, Jackson Immunoresearch Laboratories). […] Protein bands were detected by a peroxidase-based enhanced chemiluminescence (ECL) method. […]

## CCOC(=O)N[C@@H]1CC[C@@H]2[C@@H](C1)C[C@H]1C(=O)O[C@H](C)[C@H]1[C@H]2/C=C/c1ccc(-c2cccc(F)c2)cn1 [Vorapaxar]
PAR1
  bleeding side-effects: limited due to bleeding side-effects

## Cc1ccc(S(=O)(=O)N[C@@H](CC(=O)O)C(=O)N2CCC[C@H]2C(=O)N[C@@H](CCCNC(=N)N)C(=O)CCl)cc1 [3AACK] (Tos-Asp-Pro-Arg-CH2Cl)
U87 glioma cells; 10^−5M, FCS-free medium, mean ± SEM, 3AACK vs. 6AACK p < 0.035
  U87 proliferation rate ("inhibit proliferation at a rate of"): 0.58 ± 0.046
U87 glioma cells; 10^−8M, p = 0.7
  U87 proliferation inhibition, compared with 6AACK: inhibits more efficiently the proliferation rate when compared to 6AACK at a concentration of 10^−8M, this was found to be non-significant

## thrombin
[1]
  pERK/ERK ratio, thrombin alone: 2.09 ± 0.28
